Source: patent US20090099231A1, “3-Sulfonylamino-Pyrrolidine-2-One Derivatives as Factor Xa Inhibitors” (priority 2005, published 2009)
Where a name gives a salt, the structure may show the parent alone.

Experiments:
[1] = molecular target: human Factor Xa (Homo sapiens, UniProt P00742); test: In vitro assay for inhibition of Factor Xa (fluorogenic assay, Rhodamine 110 bis-Cbz-glycylglycyl-L-arginine amide substrate); assay type: biochemical; details: for Factor Xa inhibitory activity: human Factor Xa 0.0003 U.ml-1, substrate 10 μM, 15 min preincubation, room temperature, pH 7.4; for Ki: Ki=IC50/(1+[Substrate]/Km), i.e. IC50 divided by 1.6, human Factor Xa fluorogenic assay
Sequence of human Factor Xa (P00742 235-488 limits assumed): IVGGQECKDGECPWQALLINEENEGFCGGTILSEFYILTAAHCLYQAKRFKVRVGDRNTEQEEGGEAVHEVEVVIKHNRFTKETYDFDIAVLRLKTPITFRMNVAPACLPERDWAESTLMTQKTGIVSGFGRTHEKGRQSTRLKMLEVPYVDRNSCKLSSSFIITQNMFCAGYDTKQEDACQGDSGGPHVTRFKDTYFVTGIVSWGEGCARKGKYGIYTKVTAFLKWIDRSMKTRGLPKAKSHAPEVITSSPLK
Sequence of human Factor Xa (P00742 41-179 partner limits assumed): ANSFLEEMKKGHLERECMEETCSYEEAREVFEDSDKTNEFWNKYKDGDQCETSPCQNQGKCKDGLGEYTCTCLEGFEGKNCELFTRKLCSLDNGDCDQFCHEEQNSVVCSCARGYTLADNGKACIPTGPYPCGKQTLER
Experimental: Compounds of the present invention were tested for their Factor Xa inhibitory activity as determined in vitro by their ability to inhibit human Factor Xa in a fluorogenic assay, using Rhodamine 110, bis-Cbz-glycylglycyl-L-arginine amide as the fluorogenic substrate. Compounds were diluted from a 10 mM stock solution in dimethylsulfoxide at appropriate concentrations. Assay was performed at room temperature using buffer consisting of: 50 mM Tris-HCl, 150 mM NaCl, 5 mM CaCl2, pH 7.4 containing human Factor Xa (final concentration of 0.0003 U.ml-1). Compound and enzyme were preincubated for 15 min prior to addition of the substrate (final concentration of 10 μM). The reaction was stopped after 3 hrs with the addition of H-D-Phe-Pro-Arg-Chloromethylketone. An LJL-Analyst fluorimeter was used to monitor fluorescence with 485 nm excitation/535 nm emission. To obtain IC50 values the data were analysed using ActivityBase® and XLfit®.
Ki=IC50/(1+[Substrate]/Km)
The Ki value for the above assay can be obtained by dividing the IC50 value by 1.6.

[2] = test system: human plasma; test: Measurement of Prothrombin Time (PT), time to clot formation in plasma; details: pooled plasma from 4 donors, test compound 0.03 to 100 uM, Thromboplastin C Plus
Experimental: Blood was collected into a sodium citrate solution (ratio 9:1) to give a final concentration of 0.38% citrate. Plasma was generated by centrifugation of citrated blood samples at 1200×g for 20 min at 4° C. and stored at −20° C. until use.
The PT test was performed using the BCS Coagulation Analyzer (Dade Behring). For assay, 50 ul of plasma containing test compound at concentrations ranging from 0.03 to 100 uM (made from a 100 uM stock containing 1% DMSO in plasma) was combined with 100 ul of Thromboplastin C Plus (Dade Behring). Upon addition of the reagents, absorbance at 405 nm was monitored and time to clot formation is determined (normal range for human plasma is 10.6-12.4 seconds).

SMILES | Factor Xa inhibitory activity [1] | Ki [1] | activity in prothrombin time (PT) test [2]
Cl.O=C1[C@@H](NS(=O)(=O)/C=C/c2ccc(Cl)s2)CCN1c1ccc2c(c1)CCNC2 [Example 2, (E)-2-(5-Chloro-2-thienyl)-N-[(3S)-2-oxo-1-(1,2,3,4-tetrahydro-6-isoquinolinyl)-3-pyrrolidinyl]ethenesulfonamide hydrochloride] | exhibit Factor Xa inhibitory activity | – | exhibit activity
Cl.O=C1[C@@H](NS(=O)(=O)c2cc3ccc(Cl)cc3s2)CCN1c1ccc2c(c1)CCNC2 [Example 3, 6-Chloro-N-[(3S)-2-oxo-1-(1,2,3,4-tetrahydro-6-isoquinolinyl)-3-pyrrolidinyl]-1-benzothiophene-2-sulfonamide hydrochloride] | exhibit Factor Xa inhibitory activity | < 10 nM | exhibit activity
O=C1[C@@H](NS(=O)(=O)c2ccc3cc[nH]c3c2)CCN1c1ccc2c(c1)CCNC2.O=CO [Example 5, N-[(3S)-2-Oxo-1-(1,2,3,4-tetrahydro-6-isoquinolinyl)-3-pyrrolidinyl]-1H-indole-6-sulfonamide formate] | – | – | exhibit activity
CN1CCc2cc(N3CC[C@H](NS(=O)(=O)/C=C/c4ccc(Cl)s4)C3=O)ccc2C1.O=CO [Example 7, (E)-2-(5-Chloro-2-thienyl)-N-[(3S)-1-(2-methyl-1,2,3,4-tetrahydro-6-isoquinolinyl)-2-oxo-3-pyrrolidinyl]ethenesulfonamide formate] | exhibit Factor Xa inhibitory activity | – | exhibit activity
CN1CCc2cc(N3CC[C@H](NS(=O)(=O)c4cc5ccc(Cl)cc5s4)C3=O)ccc2C1.O=CO [Example 8, 6-Chloro-N-[(3S)-1-(2-methyl-1,2,3,4-tetrahydro-6-isoquinolinyl)-2-oxo-3-pyrrolidinyl]-1-benzothiophene-2-sulfonamide formate] | exhibit Factor Xa inhibitory activity | < 10 nM | exhibit activity
Cl.O=C1[C@@H](NS(=O)(=O)c2ccc(-c3ccc(Cl)s3)s2)CCN1c1ccc2c(c1)CCNC2 [Example 10, 5′-Chloro-N-[(3S)-2-oxo-1-(1,2,3,4-tetrahydro-6-isoquinolinyl)-3-pyrrolidinyl]-2,2′-bithiophene-5-sulfonamide hydrochloride] | exhibit Factor Xa inhibitory activity | – | exhibit activity
Cl.O=C1[C@@H](NS(=O)(=O)CCc2ccc(Cl)s2)CCN1c1ccc2c(c1)CNCC2 [Example 12, 2-(5-Chloro-2-thienyl)-N-[(3S)-2-oxo-1-(1,2,3,4-tetrahydro-7-isoquinolinyl)-3-pyrrolidinyl]ethanesulfonamide hydrochloride] | exhibit Factor Xa inhibitory activity | – | exhibit activity
Cl.O=C1[C@@H](NS(=O)(=O)/C=C/c2ccc(Cl)s2)CCN1c1ccc2c(c1)CNCC2 [Example 13, (E)-2-(5-Chloro-2-thienyl)-N-[(3S)-2-oxo-1-(1,2,3,4-tetrahydro-7-isoquinolinyl)-3-pyrrolidinyl]ethenesulfonamide hydrochloride] | exhibit Factor Xa inhibitory activity | – | exhibit activity
Cl.O=C1[C@@H](NS(=O)(=O)/C=C/c2ccc(Cl)s2)CCN1c1ccc2c(c1F)CCNC2 [Example 18, (E)-2-(5-Chloro-2-thienyl)-N-[(3S)-1-(5-fluoro-1,2,3,4-tetrahydro-6-isoquinolinyl)-2-oxo-3-pyrrolidinyl]ethenesulfonamide hydrochloride] | exhibit Factor Xa inhibitory activity | – | exhibit activity
Cl.O=C1[C@@H](NS(=O)(=O)c2ccc3cc(Cl)ccc3c2)CCN1c1cc2c(cc1F)CNCC2 [Example 20, 6-Chloro-N-[1-(7-fluoro-1,2,3,4-tetrahydro-6-isoquinolinyl)-2-oxo-3-pyrrolidinyl]-2-naphthalenesulfonamide hydrochloride] | exhibit Factor Xa inhibitory activity | – | exhibit activity
Cl.O=C1[C@@H](NS(=O)(=O)c2cc3ccc(Cl)cc3s2)CCN1c1cc2c(cc1F)CNCC2 [Example 21, 6-Chloro-N-[(3S)-1-(7-fluoro-1,2,3,4-tetrahydro-6-isoquinolinyl)-2-oxo-3-pyrrolidinyl]-1-benzothiophene-2-sulfonamide hydrochloride] | exhibit Factor Xa inhibitory activity | < 10 nM | exhibit activity
CN([C@H]1CCN(c2ccc3c(c2)CCNC3)C1=O)S(=O)(=O)/C=C/c1ccc(Cl)s1 [Example 34, (E)-2-(5-Chloro-2-thienyl)-N-methyl-N-[(3S)-2-oxo-1-(1,2,3,4-tetrahydro-6-isoquinolinyl)-3-pyrrolidinyl]ethenesulfonamide hydrochloride] | exhibit Factor Xa inhibitory activity | < 10 nM | –

More lines, main results first:

Factor Xa inhibitory activity [1] | Ki [1] | SMILES | activity in prothrombin time (PT) test [2]
exhibit Factor Xa inhibitory activity | – | Cl.O=C1[C@@H](NS(=O)(=O)c2ccc3cc(Cl)ccc3c2)CCN1c1ccc2c(c1)CCNC2 [Example 1, 6-Chloro-N-[(3S)-2-oxo-1-(1,2,3,4-tetrahydro-6-isoquinolinyl)-3-pyrrolidinyl]-2-naphthalenesulfonamide hydrochloride] | exhibit activity
exhibit Factor Xa inhibitory activity | – | O=C1[C@@H](NS(=O)(=O)c2ccc3c(Cl)c[nH]c3c2)CCN1c1ccc2c(c1)CCNC2.O=CO [Example 4, 3-Chloro-N-[(3S)-2-oxo-1-(1,2,3,4-tetrahydro-6-isoquinolinyl)-3-pyrrolidinyl]-1H-indole-6-sulfonamide formate] | exhibit activity
exhibit Factor Xa inhibitory activity | < 10 nM | O=C1[C@@H](NS(=O)(=O)c2cc3ccc(Cl)cc3[nH]2)CCN1c1ccc2c(c1)CCNC2.O=CO [Example 6, 6-Chloro-N-[(3S)-2-oxo-1-(1,2,3,4-tetrahydro-6-isoquinolinyl)-3-pyrrolidinyl]-1H-indole-2-sulfonamide formate] | exhibit activity
exhibit Factor Xa inhibitory activity | – | O=C1[C@@H](NS(=O)(=O)c2cc3cc(Cl)ccc3s2)CCN1c1ccc2c(c1)CCNC2 [Example 9, 5-Chloro-N-[(3S)-2-oxo-1-(1,2,3,4-tetrahydro-6-isoquinolinyl)-3-pyrrolidinyl]-1-benzothiophene-2-sulfonamide trifluoroacetate] | exhibit activity
exhibit Factor Xa inhibitory activity | – | Cl.O=C1[C@@H](NS(=O)(=O)c2ccc3cc(Cl)ccc3c2)CCN1c1ccc2c(c1)CNCC2 [Example 11, 6-Chloro-N-[(3S)-2-oxo-1-(1,2,3,4-tetrahydro-7-isoquinolinyl)-3-pyrrolidinyl]-2-naphthalenesulfonamide hydrochloride] | exhibit activity
exhibit Factor Xa inhibitory activity | – | O=C1[C@@H](NS(=O)(=O)c2ccc3c(Cl)c[nH]c3c2)CCN1c1ccc2c(c1)CNCC2.O=CO [Example 14, 3-Chloro-N-[(3S)-2-oxo-1-(1,2,3,4-tetrahydro-7-isoquinolinyl)-3-pyrrolidinyl]-1H-indole-6-sulfonamide formate] | exhibit activity
exhibit Factor Xa inhibitory activity | – | O=C1[C@@H](NS(=O)(=O)c2ccc3cc[nH]c3c2)CCN1c1ccc2c(c1)CNCC2.O=CO [Example 15, N-[(3S)-2-Oxo-1-(1,2,3,4-tetrahydro-7-isoquinolinyl)-3-pyrrolidinyl]-1H-indole-6-sulfonamide formate] | –
exhibit Factor Xa inhibitory activity | – | Cl.O=C1[C@H](NS(=O)(=O)c2ccc3cc(Cl)ccc3c2)CCN1c1ccc2c(c1)CCNC2 [Example 16, 6-Chloro-N-[(3R)-2-oxo-1-(1,2,3,4-tetrahydro-6-isoquinolinyl)-3-pyrrolidinyl]-2-naphthalenesulfonamide hydrochloride] | exhibit activity
exhibit Factor Xa inhibitory activity | – | Cl.O=C1[C@@H](NS(=O)(=O)c2ccc3c(Cl)c[nH]c3c2)CCN1c1ccc2c(c1F)CCNC2 [Example 19, 3-Chloro-N-[(3S)-1-(5-fluoro-1,2,3,4-tetrahydro-6-isoquinolinyl)-2-oxo-3-pyrrolidinyl]-1H-indole-6-sulfonamide hydrochloride] | exhibit activity
